Source: PMC12236907, “A Natural Depsipeptide Antibiotic that Targets the E site of the Bacterial Ribosome” (Research Square, 2025)
Where a SMILES comes first, the peptide text is derived from it. Bridges are numbered along the chain shown (N, C = ends). [ ]: non-standard residue; d: D form. dOrn = NCCC[C@@H](N)C(=O)O

How the values were obtained:
E. coli ribosome = assay: In vitro translocation assay; type: biochemical; conditions: mRNA MFK; 50 μM MKM or 250 μM negamycin; 1 μM E. coli ribosomes
Experimental: In vitro translocation assay was carried out using the model mRNA MFK (Supplementary Table 7) as described in the reference. The mRNA was prepared by in vitro transcription of a PCR product amplified using the primers MF_F1, MF_F2, and MF_R (Supplementary Table 6). A 4.5 μl reaction containing 1 μM E. coli ribosomes, 0.5 μM mRNA, 1 μM tRNAi^Met, 0.5 μM radiolabelled NV1 primer (Supplementary Table 6), 2 U/μl RiboLock RNase Inhibitor (Thermo), and antibiotic tested (50 μM MKM or 250 μM negamycin) in Pure System Buffer (PSB; 9 mM Mg(CH3COO)2, 5 mM K3PO4, 95 mM potassium glutamate, 5 mM NH4Cl, 0.5 mM CaCl2, 1 mM spermidine, 8 mM putrescine, 1 mM dithiothreitol, pH 7.3)[87] was incubated for 20 min at 37°C. Then N-acetyl-Phe-N-tRNAPhe, in which amino acid is attached to the tRNA’s A3’ hydroxyl via an amide bond, was added to the final concentration of 2 μM followed by 10 min incubation at 37°C. After addition of the E. coli EF-G and GTP to the final concentrations of 0.2 μM and 533 μM, respectively and incubation for 5 min at 30°C, 1 μl of the mixture of AMV reverse transcriptase (Roche) and dNTPs (2.1 U/μl AMV RT and 2 mM dNTPs in PSB) was added, and the reactions were incubated for another 5 min at 30°C. […]

Klebsiella pneumoniae = assay: Antimicrobial activity, Klebsiella pneumoniae; type: cell-based
K. pneumoniae C1559 = assay: Time-dependent killing assay, K. pneumoniae; type: cell-based, Klebsiella pneumoniae; conditions: K. pneumoniae C1559, MHB, 5×MIC (80 μg/ml), 37°C, 0-24 h; mean of three biological replicates
Experimental: E. coli BW25113 and Klebsiella pneumoniae C1559 were grown overnight in 5 ml of cation-adjusted Mueller-Hinton Broth. The cultures were then inoculated into fresh medium to achieve an OD600 of 0.1, corresponding to a concentration of 10^8 CFU/ml. […] Samples were taken at 0 h, 3 h, 6 h, and 24 h post-incubation, plated on MHA plates, and incubated for 20–24 hours at 37°C. Colony counts were used to determine the log reduction in CFU/ml, comparing treated strains to untreated control samples.

[1] = test system: E. coli strain SQ110ΔtolC::pZsbmA; conditions: agar with 4×MIC of MKM (32 μg/ml)
[2] = test system: multi-drug-resistant Enterobacteriaceae
[3] = test system: E. coli BW25113 ΔtolCΔbamB expressing ManE; assay: MIC in ManE-expressing E. coli; conditions: manE on pGDP3
[4] = test system: E. coli strain SQ110ΔtolC::pZsbmA; assay: Minimum inhibitory concentration, hypersusceptible E. coli SQ110ΔtolC::pZsbmA and its 23S rRNA mutants; conditions: 11 mutants: deletion of one adenine in A2432-A2435 (10) or of C249 (1) in 23S rRNA
[5] = highly resistant mutants of E. coli BW25113 selected by passaging

## C[C@@H](O)[C@@H]1NC(=O)[C@@H](CCCNC(=N)N)NC(=O)[C@@H](CCCNC(=N)N)NC(=O)[C@@H](CC(N)=O)NC(=O)[C@@H](NC(=O)[C@@H](Cc2ccccc2)NC(=O)[C@@H](CCCN)NC(=O)[C@H](N)CCCNC(=N)N)[C@@H](C)OC(=O)[C@H](Cc2c[nH]cn2)NC1=O [MKM, manikomycin A] (H-[dR][dOrn][dF]T[dN][dR][dR]TH; ester 4-C)
E. coli ribosome
  inhibition of EF-G-dependent translocation: notably inhibited
Klebsiella pneumoniae
  antimicrobial activity: selective antimicrobial activity
K. pneumoniae C1559
  time-kill effect: bactericidal
E. coli BW25113; deletion of genes encoding components of the transporter YejABEF
  increase in MIC: 2–8 fold
E. coli BW25113; [5]
  MIC: 512 to 1024 µg/mL
  increase in MIC over parental strain: 16- to 32 fold
[1]
  frequency of resistant colonies: ~ 10^−7
[2]
  killing of multi-drug-resistant Enterobacteriaceae: can kill
[3]
  increase in MIC on ManE expression: > 32 fold
[4]
  increase in MKM MIC: > 16 fold
